Experimental data from PubChem BioAssay AID2060904 (Molecular Pharmacology Branch, DTP, NCI, 2025).

Test system: 349418-098-R-PDC complex spheroid viability
Test: Anticancer human tumor 349418-098-R-PDC patient-derived lung adenocarcinoma cell line growth inhibition [RAS]
Settings: for IC50: curve of first compound; for viability, T/C: stronger effect = lower value
Method in brief: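 Tumour cells grown as complex spheroids with HUVEC endothelial cells and mesenchymal stem cells, treated with RAS pathway inhibitor combinations. Each agent spans half-log steps from near clinical Cmax, or 10 microM where Cmax is unknown.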

[1] = second compound 0.000949 µM, first compound 0.0316 µM
[2] = second compound 0.000949 µM, first compound 0.1 µM
[3] = second compound 0.000949 µM, first compound 0.316 µM
[4] = second compound 0.000949 µM, first compound 1 µM
[5] = second compound 0.003 µM, first compound 0.0316 µM
[6] = second compound 0.003 µM, first compound 0.1 µM
[7] = second compound 0.003 µM, first compound 0.316 µM
[8] = second compound 0.003 µM, first compound 1 µM
[9] = second compound 0.00949 µM, first compound 0.0316 µM
[10] = second compound 0.00949 µM, first compound 0.1 µM
[11] = second compound 0.00949 µM, first compound 0.316 µM
[12] = second compound 0.00949 µM, first compound 1 µM
[13] = second compound 0.03 µM, first compound 0.0316 µM
[14] = second compound 0.03 µM, first compound 0.1 µM
[15] = second compound 0.03 µM, first compound 0.316 µM
[16] = second compound 0.03 µM, first compound 1 µM
[17] = second compound 0.0949 µM, first compound 0.0316 µM
[18] = second compound 0.0949 µM, first compound 0.1 µM
[19] = second compound 0.0949 µM, first compound 0.316 µM
[20] = second compound 0.0949 µM, first compound 1 µM
[21] = second compound 0.3 µM, first compound 0.0316 µM
[22] = second compound 0.3 µM, first compound 0.1 µM
[23] = second compound 0.3 µM, first compound 0.316 µM
[24] = second compound 0.3 µM, first compound 1 µM
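Note: spheroids exposed to compound for seven days before viability readout.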

SMILES: CC(Nc1ccc2c(c1)OCCn1cc(N3C(=O)OCC3C(F)F)nc1-2)C(N)=O (centres undefined) + CCn1c(-c2cc(N3CCN(C)CC3)cnc2C(C)OC)c2c3cc(ccc31)-c1csc(n1)CC(NC(=O)C1CC1C)C(=O)N1CCCC(N1)C(=O)OCC(C)(C)C2
- IC50 (second compound 0.000949 µM): 0.127 µM
- IC50 (second compound 0.003 µM): 0.0938 µM
- IC50 (second compound 0.00949 µM): 0.158 µM
- IC50 (second compound 0.03 µM): 0.0916 µM
- IC50 (second compound 0.0949 µM): 0.145 µM
- IC50 (second compound 0.3 µM): 0.169 µM
- viability, T/C [1]: 75.9%
- viability, T/C [2]: 56.3%
- viability, T/C [3]: 25.9%
- viability, T/C [4]: 19.5%
- viability, T/C (second compound 0.000949 µM, first compound 3.16 µM): 25.7%
- viability, T/C (second compound 0.000949 µM, first compound 10 µM): 14.8%
- viability, T/C [5]: 78.6%
- viability, T/C [6]: 49.9%
- viability, T/C [7]: 25.1%
- viability, T/C [8]: 25.5%
- viability, T/C (second compound 0.003 µM, first compound 3.16 µM): 15.4%
- viability, T/C (second compound 0.003 µM, first compound 10 µM): 13.2%
- viability, T/C [9]: 85.8%
- viability, T/C [10]: 57.5%
- viability, T/C [11]: 39.6%
- viability, T/C [12]: 21.4%
- viability, T/C (second compound 0.00949 µM, first compound 3.16 µM): 20.3%
- viability, T/C (second compound 0.00949 µM, first compound 10 µM): 14%
- viability, T/C [13]: 76.4%
- viability, T/C [14]: 44.7%
- viability, T/C [15]: 36.8%
- viability, T/C [16]: 21.9%
- viability, T/C (second compound 0.03 µM, first compound 3.16 µM): 16.7%
- viability, T/C (second compound 0.03 µM, first compound 10 µM): 17.3%
- viability, T/C [17]: 77.8%
- viability, T/C [18]: 59.2%
- viability, T/C [19]: 30.7%
- viability, T/C [20]: 21.5%
- viability, T/C (second compound 0.0949 µM, first compound 3.16 µM): 25.5%
- viability, T/C (second compound 0.0949 µM, first compound 10 µM): 15.9%
- viability, T/C [21]: 89.2%
- viability, T/C [22]: 57.2%
- viability, T/C [23]: 42%
- viability, T/C [24]: 26.8%
- viability, T/C (second compound 0.3 µM, first compound 3.16 µM): 26.6%
- viability, T/C (second compound 0.3 µM, first compound 10 µM): 18.8%

SMILES: O=C(c1ccc(F)c(F)c1Nc1ccc(I)cc1F)N1CC(O)([C@@H]2CCCCN2)C1 + CCn1c(-c2cc(N3CCN(C)CC3)cnc2C(C)OC)c2c3cc(ccc31)-c1csc(n1)CC(NC(=O)C1CC1C)C(=O)N1CCCC(N1)C(=O)OCC(C)(C)C2
- IC50 (second compound 0.000949 µM): < 0.00316 µM
- IC50 (second compound 0.003 µM): < 0.00316 µM
- IC50 (second compound 0.00949 µM): < 0.00316 µM
- IC50 (second compound 0.03 µM): < 0.00316 µM
- IC50 (second compound 0.0949 µM): < 0.00316 µM
- IC50 (second compound 0.3 µM): < 0.00316 µM
- viability, T/C (second compound 0.000949 µM, first compound 0.00316 µM): 25.6%
- viability, T/C (second compound 0.000949 µM, first compound 0.01 µM): 15.3%
- viability, T/C [1]: 12.3%
- viability, T/C [2]: 7.55%
- viability, T/C [3]: 6.32%
- viability, T/C [4]: 4.06%
- viability, T/C (second compound 0.003 µM, first compound 0.00316 µM): 26.8%
- viability, T/C (second compound 0.003 µM, first compound 0.01 µM): 17.7%
- viability, T/C [5]: 11%
- viability, T/C [6]: 7.55%
- viability, T/C [7]: 5.82%
- viability, T/C [8]: 4.4%
- viability, T/C (second compound 0.00949 µM, first compound 0.00316 µM): 20%
- viability, T/C (second compound 0.00949 µM, first compound 0.01 µM): 7.54%
- viability, T/C [9]: 7.52%
- viability, T/C [10]: 5.46%
- viability, T/C [11]: 5.26%
- viability, T/C [12]: 4.12%
- viability, T/C (second compound 0.03 µM, first compound 0.00316 µM): 14.1%
- viability, T/C (second compound 0.03 µM, first compound 0.01 µM): 8.8%
- viability, T/C [13]: 6.96%
- viability, T/C [14]: 5.38%
- viability, T/C [15]: 5.09%
- viability, T/C [16]: 4.3%
- viability, T/C (second compound 0.0949 µM, first compound 0.00316 µM): 9.09%
- viability, T/C (second compound 0.0949 µM, first compound 0.01 µM): 6.88%
- viability, T/C [17]: 5.8%
- viability, T/C [18]: 5.07%
- viability, T/C [19]: 5.29%
- viability, T/C [20]: 4.24%
- viability, T/C (second compound 0.3 µM, first compound 0.00316 µM): 11.8%
- viability, T/C (second compound 0.3 µM, first compound 0.01 µM): 7.65%
- viability, T/C [21]: 5.68%
- viability, T/C [22]: 5.13%
- viability, T/C [23]: 4.83%
- viability, T/C [24]: 4.09%
